Some results are limits rather than exact numbers.

The target of one experiment is T1, APOL1 G1 (Homo sapiens, UniProt O14791, I384M/S342G).
T1 sequence (O14791 28-398 S342G/I384M): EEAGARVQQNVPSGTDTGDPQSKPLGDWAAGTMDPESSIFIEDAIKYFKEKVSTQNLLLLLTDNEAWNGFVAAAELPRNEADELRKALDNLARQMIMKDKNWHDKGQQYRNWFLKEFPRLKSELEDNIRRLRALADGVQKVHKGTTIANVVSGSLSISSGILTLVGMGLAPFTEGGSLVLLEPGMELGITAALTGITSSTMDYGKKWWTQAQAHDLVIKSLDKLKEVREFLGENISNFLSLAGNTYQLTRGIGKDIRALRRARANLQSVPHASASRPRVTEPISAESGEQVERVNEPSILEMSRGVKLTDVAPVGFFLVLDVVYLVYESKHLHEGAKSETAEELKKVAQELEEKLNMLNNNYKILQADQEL
The experiment in a line: Trypanosoma brucei brucei Lysis Assay Using APOL1 Recombinant Protein (AlamarBlue viability readout). The conditions noted are these: Trypanosome Assay; for IC50: IP50 = IC50 for cell proliferation, read-out: Trypanosome Assay IP50; for Emax: read-out: Trypanosome Assay Max Activity (%). The class given is cell-based. The method, boiled down:
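Percent viability comes from AlamarBlue (resazurin→resorufin) fluorescence interpolated on a standard curve of known parasite numbers, with no-APOL1 wells as 100%. Parasites (Lister 427 bloodstream form, 120,000/well, serum-free assay medium) meet 0.05 μg/mL APOL1 (~EC90). Compounds span a 10-point series, 0.1% DMSO final.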

For the next experiment, the target named is T2, APOL1 (Homo sapiens, UniProt O14791).
T2 sequence (O14791 1-398 S342G/I384M): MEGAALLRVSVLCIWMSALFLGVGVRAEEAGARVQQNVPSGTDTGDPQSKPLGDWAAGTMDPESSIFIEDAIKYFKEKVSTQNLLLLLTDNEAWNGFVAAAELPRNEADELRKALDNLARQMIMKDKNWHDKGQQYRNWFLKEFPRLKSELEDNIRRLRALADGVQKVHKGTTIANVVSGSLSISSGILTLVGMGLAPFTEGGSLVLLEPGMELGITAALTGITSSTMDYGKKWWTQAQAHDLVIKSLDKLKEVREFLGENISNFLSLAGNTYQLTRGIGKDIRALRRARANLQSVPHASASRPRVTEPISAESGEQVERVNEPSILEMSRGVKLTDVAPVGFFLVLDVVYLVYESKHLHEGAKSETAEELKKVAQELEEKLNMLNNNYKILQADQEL
The experiment in a line: Multi-Tox Assay (MultiTox-Fluor Multiplex Cytotoxicity Assay in tet-inducible APOL1 T-REx-HEK293 cells; Table 46 does not say which APOL1 variant G0/G1/G2). It is filed as cell-based. As to conditions: APOL1 variant not given; for IC50: IP50 = IC50 for cell proliferation.

Regarding `CCC(O)Cn1cc([C@@H]2C[C@]3(C[C@H](C)N2)OCCc2cc(Cl)sc23)nn1` (mixture of isomers) [Compound 111], at APOL1 G1, the IC50 was 50 to 500 nM and the Emax is 98.5%. At APOL1, the “Multi-Tox Assay Max Activity (%)” value is on record as 99.3% and the IC50 was below 50 nM.
Taken in the same sequence, the figures for `C[C@H]1C[C@@]2(C[C@@H](c3ccnc(O)c3)N1)OCCc1cc(Cl)sc12` (racemic) [Compound 112] were 50 to 500 nM, 112%, 100.0% and below 50 nM.
For `CC(=O)Nc1cccc([C@@H]2C[C@]3(C[C@H](C)N2)OCCc2cc(Cl)sc23)c1` (racemic) [Compound 113], in that order: 50 to 500 nM, 97%, 100.0% and below 50 nM.
Taken in the same sequence, the figures for `C[C@H]1C[C@@]2(C[C@@H](c3cccc(NS(C)(=O)=O)c3)N1)OCCc1cc(Cl)sc12` (racemic) [Compound 115] were 50 to 500 nM, 100%, 99.3% and below 50 nM.
Regarding `Cc1nccc([C@@H]2C[C@]3(C[C@H](C)N2)OCCc2cc(Cl)sc23)n1` (racemic) [Compound 116], on APOL1 G1, the IC50 lay within 50 to 500 nM and the Emax is 101%. Besides, the IC50 at APOL1 is below 50 nM.
For the molecule `C[C@H]1C[C@@]2(C[C@@H](c3cnn4ccccc34)N1)OCCc1cc(Cl)sc12` (racemic) [Compound 117], at APOL1 G1, the IC50 was below 50 nM and the Emax was determined as 101%. For the same molecule, at APOL1, the “Multi-Tox Assay Max Activity (%)” value is listed as 99.0% and the IC50 is below 50 nM.
Take `C[C@H]1C[C@@]2(C[C@@H](c3ccn(C)n3)N1)OCCc1cc(Cl)sc12` (racemic) [Compound 118]: at APOL1 G1, the IC50 fell in the range of 50 to 500 nM and the Emax was 98%. Further, on APOL1, the “Multi-Tox Assay Max Activity (%)” value came out at 99.3% and the IC50 was below 50 nM.
As for `C[C@H]1C[C@@]2(C[C@@H](c3cc(C4CC4)n[nH]3)N1)OCCc1cc(Cl)sc12` (racemic) [Compound 120], on APOL1 G1, the IC50 lay in the range of 50 to 500 nM and the Emax was 91.5%. For the same molecule, at APOL1, the “Multi-Tox Assay Max Activity (%)” value worked out at 99.0% and the IC50 is below 50 nM.
For `C[C@H]1C[C@@]2(C[C@@H](c3ccc[nH]c3=O)N1)OCCc1cc(Cl)sc12` (racemic) [Compound 121], in that order: 50 to 500 nM, 97.5%, 99.0% and below 50 nM.
Taken in the same sequence, the figures for `C[C@H]1C[C@@]2(C[C@@H](c3ccc(C(F)(F)F)nc3)N1)OCCc1cc(Cl)sc12` (racemic) [Compound 123] were below 50 nM, 104%, 100.0% and below 50 nM.
`C[C@H]1C[C@@]2(C[C@@H](c3cn(C)c(=O)n(C)c3=O)N1)OCCc1cc(Cl)sc12` (racemic) [Compound 124]: on APOL1 G1, the IC50 lay in the range of 50 to 500 nM and the Emax turned out to be 104%. Besides, on APOL1, the “Multi-Tox Assay Max Activity (%)” value is recorded as 99.3% and the IC50 is 50 to 500 nM.
On to `Cc1cc(O)ncc1[C@@H]1C[C@]2(C[C@H](C)N1)OCCc1cc(Cl)sc12` (racemic) [Compound 125], for which, on APOL1 G1, the IC50 lay in the range of 50 to 500 nM and the Emax amounted to 103%. Also, on APOL1, the “Multi-Tox Assay Max Activity (%)” value is reported as 99.7% and the IC50 was below 50 nM.
For `Cc1cccc([C@@H]2C[C@]3(C[C@H](C)N2)OCCc2cc(Cl)sc23)n1` (racemic) [Compound 126], at APOL1 G1, the IC50 lay in the range of 50 to 500 nM and the Emax was 115%. Moreover, at APOL1, the “Multi-Tox Assay Max Activity (%)” value is on record as 99.4% and the IC50 fell in the range of 50 to 500 nM.
In the case of `C[C@H]1C[C@@]2(C[C@@H](c3ccnc(N(C)C)n3)N1)OCCc1cc(Cl)sc12` (racemic) [Compound 127], at APOL1 G1, the IC50 is 50 to 500 nM and the Emax is 107%. In addition, on APOL1, the “Multi-Tox Assay Max Activity (%)” value worked out at 99.3% and the IC50 lay within 50 to 500 nM.
Take `CCc1nc([C@@H]2C[C@]3(C[C@H](C)N2)OCCc2cc(Cl)sc23)c[nH]1` (racemic) [Compound 128]: at APOL1 G1, the IC50 was 50 to 500 nM and the Emax came out at 107%. Besides, on APOL1, the “Multi-Tox Assay Max Activity (%)” value worked out at 99.3% and the IC50 lay within 50 to 500 nM.
As to `C[C@H]1C[C@@]2(C[C@@H](c3cnc(N4CCN(C)CC4)nc3)N1)OCCc1cc(Cl)sc12` (racemic) [Compound 129], at APOL1 G1, the IC50 is below 50 nM and the Emax came out at 88%. Further, at APOL1, the “Multi-Tox Assay Max Activity (%)” value came to 100.0% and the IC50 was in the range of 50 to 500 nM.
Taken in the same sequence, the figures for `C[C@H]1C[C@@]2(C[C@@H](c3c[nH]c(C4CC4)n3)N1)OCCc1cc(Cl)sc12` (racemic) [Compound 130] were 50 to 500 nM, 102%, 99.0% and 50 to 500 nM.
For `C[C@H]1C[C@@]2(C[C@@H](c3cc4n(n3)CCCO4)N1)OCCc1cc(Cl)sc12` (racemic) [Compound 131], on APOL1 G1, the IC50 lay within 50 to 500 nM and the Emax was found to be 111%. Also, on APOL1, the “Multi-Tox Assay Max Activity (%)” value is 99.3% and the IC50 was in the range of 50 to 500 nM.
With `Cc1nocc1[C@@H]1C[C@]2(C[C@H](C)N1)OCCc1cc(Cl)sc12` (racemic) [Compound 132], on APOL1 G1, the IC50 lay in the range of 50 to 500 nM and the Emax was 91.5%. For the same molecule, on APOL1, the “Multi-Tox Assay Max Activity (%)” value is on record as 99.3% and the IC50 lay in the range of 50 to 500 nM.
Turning to `C[C@H]1C[C@@]2(C[C@@H](c3cn(CC(N)=O)nn3)N1)OCCc1cc(Cl)sc12` (racemic) [Compound 133], at APOL1 G1, the IC50 lay within 50 to 500 nM and the Emax is 111%. Moreover, on APOL1, the “Multi-Tox Assay Max Activity (%)” value amounted to 99.7% and the IC50 fell in the range of 50 to 500 nM.
`Cc1cnc([C@@H]2C[C@]3(C[C@H](C)N2)OCCc2cc(Cl)sc23)o1` (racemic) [Compound 134]: on APOL1 G1, the IC50 is 50 to 500 nM and the Emax was 96.7%. Also, on APOL1, the “Multi-Tox Assay Max Activity (%)” value is 99.2% and the IC50 was 50 to 500 nM.
For the molecule `Cc1c([C@@H]2C[C@]3(C[C@H](C)N2)OCCc2cc(Cl)sc23)cnn1C` (racemic) [Compound 136], on APOL1 G1, the IC50 is 50 to 500 nM and the Emax was 100%. In addition, the IC50 against APOL1 was 50 to 500 nM.
Take `COc1cc(O)cc([C@@H]2C[C@]3(C[C@H](C)N2)OCCc2cc(Cl)sc23)c1` (racemic) [Compound 137]: at APOL1 G1, the IC50 is 50 to 500 nM and the Emax is 84.5%. In addition, at APOL1, the “Multi-Tox Assay Max Activity (%)” value stood at 98.7% and the IC50 was 50 to 500 nM.
Turning to `Cc1cc([C@@H]2C[C@]3(C[C@H](C)N2)OCCc2cc(Cl)sc23)nc(N(C)C)n1` (racemic) [Compound 138], on APOL1 G1, the IC50 fell in the range of 50 to 500 nM and the Emax was 104%. Further, on APOL1, the “Multi-Tox Assay Max Activity (%)” value was 98.0% and the IC50 lay within 50 to 500 nM.
For the molecule `Cc1ccnc([C@@H]2C[C@]3(C[C@H](C)N2)OCCc2cc(Cl)sc23)c1` (racemic) [Compound 139], on APOL1 G1, the IC50 is above 500 nM and the Emax stood at 98.3%. Besides, at APOL1, the “Multi-Tox Assay Max Activity (%)” value is listed as 98.0% and the IC50 is 50 to 500 nM.
For `C[C@H]1C[C@@]2(C[C@@H](c3cnc(C4CCOCC4)o3)N1)OCCc1cc(Cl)sc12` (racemic) [Compound 140], in that order: 50 to 500 nM, 102%, 99.7% and 50 to 500 nM.
